# Data taken from patent US20250066389A1, “HETEROCYCLIC AMIDES AND METHODS OF USING THE SAME” (Rgenta Therapeutics, Inc., priority 2021, published 2025).
# Counter-ions that a name gives are not always drawn.
# Test system: PMS1
# Test: Mini-Gene Reporter Assay—PMS1 (firefly luciferase mini-gene reporter transiently transfected into HEK293 cells)
# Assay type: cell-based
# Details: Homo sapiens; mini-gene firefly luciferase reporter in HEK293 cells
# Outline: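 Luminescence (RLU) read-out of exon inclusion: compound dilutions, tested in duplicate, act on transiently transfected HEK293 cells carrying a firefly luciferase reporter fused downstream of the PMS1 skipped-exon region. Potency derived by Levenberg-Marquardt curve fitting, with percent effect at 5 μM.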
row,Compound,IC50
1,"CCOc1cc2nc(C)cn2cc1C(=O)Nc1ccc(N2CCNC3(CC3)C2)nn1 [Compound 210, N-(6-4,7-diazaspiro[2.5]octan-7-ylpyridazin-3-yl)-7-ethoxy-2-methylimidazo[1,2-a]pyridine-6-carboxamide]",< 1000 nM
2,"Cc1cn2cc(C(=O)Nc3ccc(N4CCN[C@@H](C)C4)nn3)c(O[C@@H]3CCOC3)cc2n1 [Compound 212, 2-methyl-N-(6-((S)-3-methylpiperazin-1-yl)pyridazin-3-yl)-7-((tetrahydrofuran-3-yl)oxy)imidazo[1,2-a]pyridine-6-carboxamide]",1000 to 10000 nM
3,"Cc1cn2cc(C(=O)Nc3ccc(N4CCN[C@@H](C)C4)nn3)c(O[C@H]3CCOC3)cc2n1 [Compound 213, 2-methyl-N-(6-((S)-3-methylpiperazin-1-yl)pyridazin-3-yl)-7-((tetrahydrofuran-3-yl)oxy)imidazo[1,2-a]pyridine-6-carboxamide]",< 1000 nM
4,"Cc1cn2cc(C(=O)Nc3ccc(N4CCN[C@@H](C)C4)nn3)c(OCC(F)(F)F)cc2n1 [Compound 216, (S)-2-methyl-N-(6-(3-methylpiperazin-1-yl)pyridazin-3-yl)-7-(2,2,2-trifluoroethoxy)imidazo[1,2-a]pyridine-6-carboxamide]",< 1000 nM
5,"CCOc1cc2nc(C)cn2cc1C(=O)Nc1ccc(N2CCN[C@@H](C)C2)nn1 [Compound 217, (S)-7-ethoxy-2-methyl-N-(6-(3-methylpiperazin-1-yl)pyridazin-3-yl)imidazo[1,2-a]pyridine-6-carboxamide HCl Salt]",< 1000 nM
6,"Cc1cn2cc(C(=O)Nc3ccc(N4CCNC(C)(C)C4)nn3)c(OC3CCC3)cc2n1 [Compound 219, 7-cyclobutoxy-N-(6-(3,3-dimethylpiperazin-1-yl)pyridazin-3-yl)-2-methylimidazo[1,2-a]pyridine-6-carboxamide]",< 1000 nM
7,"CCOc1cc2nn(C)cc2cc1C(=O)Nc1ccc(N2CCNC(C)(C)C2)nn1 [Compound 220, N-(6-(3,3-dimethylpiperazin-1-yl)pyridazin-3-yl)-6-ethoxy-2-methyl-2H-indazole-5-carboxamide hydrochloride]",< 1000 nM
8,"CCOc1nc2nc(C)cn2cc1C(=O)Nc1ccc(N2CCN[C@@H](C)C2)nn1 [Compound 224, (S)-7-ethoxy-2-methyl-N-(6-(3-methylpiperazin-1-yl)pyridazin-3-yl)imidazo[1,2-a]pyrimidine-6-carboxamide hydrochloride]",< 1000 nM
9,CCOc1cc2nc(C)cn2cc1C(=O)Nc1ccc(N2CCNCC3(CC3)C2)nn1 [Compound 230],1000 to 10000 nM
10,CCOc1cc2nc(C)cn2cc1C(=O)Nc1ccc(N2CCC3CCCC(C2)N3)nn1 (centres unmarked) [Compound 236],1000 to 10000 nM
11,CCOc1cc2nc(C)cn2cc1C(=O)Nc1ccc(N2C3CCCC2CNC3)nn1 [Compound 238],1000 to 10000 nM
12,CCOc1cc2nc(C)cn2cc1C(=O)Nc1ccc(N2CCC3CCNCC3C2)nn1 (centres unmarked) [Compound 240],1000 to 10000 nM
13,CCOc1cc2nc(C)cn2cc1C(=O)Nc1ccc(N2CCC(NCCOC)CC2)nn1 [Compound 245],1000 to 10000 nM
14,CCOc1cc2nc(C)cn2cc1C(=O)Nc1ccc(N2C3CCC2CC(NC)C3)nn1 (centres unmarked) [Compound 247],1000 to 10000 nM
15,CCOc1cc2nc(C)cn2cc1C(=O)Nc1ccc(N2CC3CCCC(C2)NC3)nn1 (centres unmarked) [Compound 248],1000 to 10000 nM
16,CCNC1CCCN(c2ccc(NC(=O)c3cn4cc(C)nc4cc3OCC)nn2)C1 (centres unmarked) [Compound 251],1000 to 10000 nM
17,CCOc1cc2nc(C)cn2cc1C(=O)Nc1ccc(N2CC3CCCC(C2)N3)nn1 [Compound 255],< 1000 nM
18,CCOc1cc2nc(C)cn2cc1C(=O)Nc1ccc(N(C)[C@@H]2C[C@H]3CC[C@@H](C2)N3)nn1 [Compound 256],1000 to 10000 nM
19,CCOc1cc2nc(C)cn2cc1C(=O)Nc1ccc(N2CCNC3CC32)nn1 (centres unmarked) [Compound 258],1000 to 10000 nM
20,CCOc1cc2nc(C)cn2cc1C(=O)Nc1ccc(N2CCNCCC2C)nn1 (centres unmarked) [Compound 264],1000 to 10000 nM
21,CCOc1cc2nc(C)cn2cc1C(=O)Nc1ccc(N2CCC3(CCCNC3)C2)nn1 (centres unmarked) [Compound 265],1000 to 10000 nM
22,CCOc1cc2nc(C)cn2cc1C(=O)Nc1ccc(N2CCNC(C)C2C)nn1 (centres unmarked) [Compound 268],1000 to 10000 nM
23,CCOc1cc2nc(C)cn2cc1C(=O)Nc1ccc(N2CCC(CNC)CC2)nn1 [Compound 270],1000 to 10000 nM
24,CCOc1cc2nc(C)cn2cc1C(=O)Nc1ccc(N2CCC3(CNC3)C2)nn1 [Compound 271],1000 to 10000 nM
25,CCOc1cc2nc(C)cn2cc1C(=O)Nc1ccc(N2CCN(C3CNC3)CC2)nn1 [Compound 272],1000 to 10000 nM
26,CCOc1cc2nc(C)cn2cc1C(=O)Nc1ccc(N2CCC3(CCNCC3)C2)nn1 [Compound 273],1000 to 10000 nM
27,CCOc1cc2nc(C)cn2cc1C(=O)Nc1ccc(N2CCC3(CCNC3)CC2)nn1 [Compound 275],1000 to 10000 nM
28,CCOc1cc2nc(C)cn2cc1C(=O)Nc1ccc(N2CCN[C@@H](C(C)C)C2)nn1 [Compound 276],< 1000 nM

# Next, values leading:
row,IC50,Compound
1,10000 to 50000 nM,"Cc1cn2cc(C(=O)Nc3ccc(N4CCN[C@@H](C)C4)nn3)c(OC3CCOCC3)cc2n1 [Compound 211, (S)-2-methyl-N-(6-(3-methylpiperazin-1-yl)pyridazin-3-yl)-7-((tetrahydro-2H-pyran-4-yl)oxy)imidazo[1,2-a]pyridine-6-carboxamide hydrochloride]"
2,< 1000 nM,"CCc1nc(C(=O)Nc2ccc(N3CCN[C@@H](C)C3)nn2)cn2cc(C)nc12 [Compound 214, 8-ethyl-2-methyl-N-{6-[(3S)-3-methylpiperazin-1-yl]pyridazin-3-yl}imidazo[1,2-a]pyrazine-6-carboxamide]"
3,< 1000 nM,"CCOc1cn2nc(C)cc2cc1C(=O)Nc1ccc(N2CCN[C@@H](C)C2)nn1 [Compound 215, (S)-6-ethoxy-2-methyl-N-(6-(3-methylpiperazin-1-yl)pyridazin-3-yl)pyrazolo[1,5-a]pyridine-5-carboxamide HCl Salt]"
4,1000 to 10000 nM,"Cc1cn2cc(C(=O)Nc3ccc(N4CCN[C@@H](C)C4)nn3)c(OC3CCCOC3)cc2n1 (stereo partly drawn) [Compound 218, 2-methyl-N-(6-((S)-3-methylpiperazin-1-yl)pyridazin-3-yl)-7-((tetrahydro-2H-pyran-3-yl)oxy)imidazo[1,2-a]pyridine-6-carboxamide]"
5,< 1000 nM,"CCOc1cc2nc(C)cn2cc1C(=O)Nc1ccc(N2CCNC(C)(C)C2)nn1 [Compound 221, N-(6-(3,3-dimethylpiperazin-1-yl)pyridazin-3-yl)-7-ethoxy-2-methylimidazo[1,2-a]pyridine-6-carboxamide hydrochloride]"
6,1000 to 10000 nM,"CCOc1cc2nn(C)cc2cc1C(=O)Nc1cc(C)c(N2CCN[C@@H](C)C2)nn1 [Compound 222, (S)-6-ethoxy-2-methyl-N-(5-methyl-6-(3-methylpiperazin-1-yl)pyridazin-3-yl)-2H-indazole-5-carboxamide hydrochloride]"
7,< 1000 nM,"CCOc1nc2nn(C)cc2cc1C(=O)Nc1ccc(N2CCN[C@@H](C)C2)nn1 [Compound 225, (S)-6-ethoxy-2-methyl-N-(6-(3-methylpiperazin-1-yl)pyridazin-3-yl)-2H-pyrazolo[3,4-b]pyridine-5-carboxamide hydrochloride]"
8,1000 to 10000 nM,CCOc1cc2nc(C)cn2cc1C(=O)Nc1ccc(N2CCC(NC)CC2)nn1 [Compound 226]
9,1000 to 10000 nM,CCOc1cc2nc(C)cn2cc1C(=O)Nc1ccc(N2CC(C3CCNC3)C2)nn1 (centres unmarked) [Compound 227]
10,< 1000 nM,CCOc1cc2nc(C)cn2cc1C(=O)Nc1ccc(N2CCNC(CC(F)F)C2)nn1 (centres unmarked) [Compound 228]
11,< 1000 nM,CCOc1cc2nc(C)cn2cc1C(=O)Nc1ccc(N2CC3=C(CNC3)C2)nn1 [Compound 229]
12,1000 to 10000 nM,CCOc1cc2nc(C)cn2cc1C(=O)Nc1ccc(N2CCNC(CC(F)(F)F)C2)nn1 (centres unmarked) [Compound 231]
13,1000 to 10000 nM,CCOc1cc2nc(C)cn2cc1C(=O)Nc1ccc(N2CCC(CNC(C)C)CC2)nn1 [Compound 232]
14,1000 to 10000 nM,CCOc1cc2nc(C)cn2cc1C(=O)Nc1ccc(N2CCC(C3CCCN3)C2)nn1 (centres unmarked) [Compound 233]
15,1000 to 10000 nM,CCOc1cc2nc(C)cn2cc1C(=O)Nc1ccc(N2CC3C4CCC(NC4)C3C2)nn1 (centres unmarked) [Compound 235]
16,1000 to 10000 nM,CCOc1cc2nc(C)cn2cc1C(=O)Nc1ccc(N2CC3CCC2C2CNCC32)nn1 (centres unmarked) [Compound 237]

row,IC50,Compound
1,1000 to 10000 nM,CCOc1cc2nc(C)cn2cc1C(=O)Nc1ccc(N2CC34CCCC3(CNC4)C2)nn1 (centres unmarked) [Compound 242]
2,1000 to 10000 nM,CCOc1cc2nc(C)cn2cc1C(=O)Nc1ccc(N2CCNC3CCCCC32)nn1 (centres unmarked) [Compound 243]
3,< 1000 nM,CCNC1CCN(c2ccc(NC(=O)c3cn4cc(C)nc4cc3OCC)nn2)C1 (centres unmarked) [Compound 244]
4,1000 to 10000 nM,CCOc1cc2nc(C)cn2cc1C(=O)Nc1ccc(N2CCC(NCC3CC3)CC2)nn1 [Compound 249]
5,1000 to 10000 nM,CCOc1cc2nc(C)cn2cc1C(=O)Nc1ccc(N(C)C2CCCNCC2)nn1 (centres unmarked) [Compound 250]
6,10000 to 50000 nM,CCOc1cc2nc(C)cn2cc1C(=O)Nc1ccc(N2CCCC3(CCNC3)C2)nn1 (centres unmarked) [Compound 254]
7,1000 to 10000 nM,CCOc1cc2nc(C)cn2cc1C(=O)Nc1ccc(N2CCNC(C)CC2)nn1 (centres unmarked) [Compound 257]
8,1000 to 10000 nM,CCOc1cc2nc(C)cn2cc1C(=O)Nc1ccc(N2CCN(CC3CCNCC3)CC2)nn1 [Compound 259]
9,1000 to 10000 nM,CCOc1cc2nc(C)cn2cc1C(=O)Nc1ccc(N2C[C@@H]3CCCN[C@@H]3C2)nn1 [Compound 260]
10,1000 to 10000 nM,CCNC1CN(c2ccc(NC(=O)c3cn4cc(C)nc4cc3OCC)nn2)C1 [Compound 262]
11,1000 to 10000 nM,CCOc1cc2nc(C)cn2cc1C(=O)Nc1ccc(N2CCC(C3CCCN3)CC2)nn1 (centres unmarked) [Compound 263]
12,< 1000 nM,CCOc1cc2nc(C)cn2cc1C(=O)Nc1ccc(N2CCC(CNC)C2)nn1 (centres unmarked) [Compound 266]
13,1000 to 10000 nM,CCOc1cc2nc(C)cn2cc1C(=O)Nc1ccc(N2CC3(CCNC3)C2)nn1 [Compound 267]
14,1000 to 10000 nM,CCNC1CCN(c2ccc(NC(=O)c3cn4cc(C)nc4cc3OCC)nn2)CC1 [Compound 269]
15,1000 to 10000 nM,CCOc1cc2nc(C)cn2cc1C(=O)Nc1ccc(N2CCN(C3CCNC3)CC2)nn1 (centres unmarked) [Compound 274]
